Experimental findings from patent publication US5585376A, “1,5-benzodiazepine derivatives having CCK and/or gastrin antagonistic activity” (Glaxo Wellcome Inc., priority 1993, dated 1996) are described below.

As usually defined, the Ki is a measure of affinity in units of concentration, obtained from inhibition or displacement. A low value points to tighter binding.

Each structure is given as a SMILES string.

The first data set concerns the target T1, human CCK-B receptor (Homo sapiens, UniProt P32239).
T1 construct: expressed in transfected cells; host or cells: HeLa cells (membranes), stably transfected
T1 sequence (P32239 1-447): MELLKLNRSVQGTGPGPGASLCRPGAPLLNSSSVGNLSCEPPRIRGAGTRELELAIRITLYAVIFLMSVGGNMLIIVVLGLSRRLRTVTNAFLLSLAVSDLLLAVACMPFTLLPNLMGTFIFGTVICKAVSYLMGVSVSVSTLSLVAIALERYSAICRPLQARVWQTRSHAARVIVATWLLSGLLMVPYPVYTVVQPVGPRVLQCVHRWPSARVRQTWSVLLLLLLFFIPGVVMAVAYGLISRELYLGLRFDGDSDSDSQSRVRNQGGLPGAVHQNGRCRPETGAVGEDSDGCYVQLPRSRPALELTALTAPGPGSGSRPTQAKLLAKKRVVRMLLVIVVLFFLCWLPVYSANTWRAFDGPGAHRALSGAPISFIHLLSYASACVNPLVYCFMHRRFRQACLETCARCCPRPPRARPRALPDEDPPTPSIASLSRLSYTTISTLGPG
Briefly: CCK-B receptor binding, transfected HeLa cell membranes, [125I]BH-sCCK-8. Particulars: HeLa cell membranes stably transfected with human CCK-B receptor; 30 pM [125I]BH-sCCK-8. As for the experimental part:
Alternatively the binding affinity of compounds of the invention for CCK-A and CCK-B receptors may be determined using HeLa cell membranes that are transfected with the human CCK-B receptor or, COS-M6 cell membranes that are transiently transfected with the human CCK-A receptor.
CCK-B receptor binding studies were carried out using HeLa cell membranes which had been stabily transfected with the human CCK-B receptor cloned from temporal cortex cDNA library.
The transfected HeLa cell membranes were incubated with 30 pM [^125 ]BH-sCCK-8 in the presence of various concentrations of the test compound (1 pM to 1 μM). All experiments were performed in an assay volume of 250 μl. Membranes were harvested onto GF/C glass fibre filter paper (Whatman, UK) by rapid filtration using a Cell Harvester (Brandel model M-24R) and washed three times with HEPES Wash buffer chilled to 4° C. The radioactivity trapped on individual filter discs was counted over 60 seconds using a gamma counter (Mini Gamma counter, LKB, Wallac, Finland) at a counting efficiency of 77%. A control experiment was also carded out in the absence of a test compound.
Analysis of the data was performed by computer-assisted non-linear regression (ALLFIT programmes DeLean et al., 1978;). IC50 values for the test compounds were convened to Ki values using the Cheng & Prussof equation (Ki =IC50 /(1+[L]/KD)) (Cheng and Prussof, 1973).
`O=C(Nc1ccccc1)NC1C(=O)N(CC(=O)N2CCCC2)c2ccccc2N(C2CCCCC2)C1=O` (stereo not drawn) [Example 10] gave a Ki of 3.98 nM.
The same measure, in the same setting: with `O=C(Nc1cccc([N+](=O)[O-])c1)NC1C(=O)N(CC(=O)N2CCCC2)c2ccccc2N(C2CCCCC2)C1=O` (stereo not drawn) [Example 8] the figure was 2.51 nM; with `O=C(Nc1ccc(F)cc1)NC1C(=O)N(CC(=O)N2CCCC2)c2ccccc2N(C2CCCCC2)C1=O` (stereo not drawn) [Example 1, 1-[1-Cyclohexyl-2,4-dioxo-5-(2-oxo-2-pyrrolidin-1-yl-ethyl)-2,3,4,5-tetrahydro-1H-benzo[b][1.4]diazepin-3-yl]-3-(4-fluoro-phenyl)urea], 3.16 nM.
For the compound `O=C(O)Cc1cccc(NC(=O)NC2C(=O)N(CC(=O)N3CCCC3)c3ccccc3N(c3ccccc3F)C2=O)c1` (stereo not drawn) [Example 3, (3-{3-[1-(2-Fluoro-phenyl)-2,4-dioxo-5-(2-oxo-2-pyrrolidin-1-yl-ethyl)-2,3,4,5-tetrahydro-1H-benzo[b][1,4]diazepin-3-yl]-ureido}-phenyl)-acetic acid], the affinity corresponds to a Ki of 3.98 nM.
The same measure, in the same setting: the same measure for `CC1(C)CCCN(C(=O)CN2C(=O)C(NC(=O)Nc3cccc(C(=O)O)c3)C(=O)N(c3ccccc3F)c3ccccc32)C1` (stereo not drawn) [Example 4, 3-{3-[1-[2-(3,3-Dimethyl-piperidin-1-yl)-2-oxo-ethyl]-5-(2-fluoro-phenyl)-2,4-dioxo-2,3,4,5-tetrahydro-1H-benzo[b][1,4]diazepin-3-yl]-ureido}-benzoic acid]: 1.58 nM; for `O=C(Nc1cccc(-c2nn[nH]n2)c1)NC1C(=O)N(CC(=O)N2CCCC2)c2ccccc2N(c2ccccc2)C1=O` (stereo not drawn) [Example 14]: 3.16 nM; for `O=C(Nc1ccc(F)cc1)NC1C(=O)N(CC(=O)N2CCCC2)c2ccccc2N(C2CCCCC2)C1=O` (single isomer, unassigned) [1 (isomer 2), 1-[1-Cyclohexyl-2,4-dioxo-5-(2-oxo-2-pyrrolidin-1-yl-ethyl)-2,3,4,5-tetrahydro-1H-benzo[b][1.4]diazepin-3-yl]-3-(4-fluoro-phenyl)urea]: 7.94 nM.
`O=C(Nc1cccc(F)c1)NC1C(=O)N(CC(=O)N2CCCC2)c2ccccc2N(C2CCCCC2)C1=O` (stereo not drawn) [Example 7] had a Ki of 5.01 nM.
For `O=C(Nc1cccc(C(=O)O)c1)NC1C(=O)N(CC(=O)N2CCCC2)c2ccccc2N(C2CCCCC2)C1=O` (stereo not drawn) [Example 2, 3-{3-[1-Cyclohexyl-2,4-dioxo-5-(2-oxo-2-pyrrolidin-1-yl-ethyl)-2,3,4,5-tetrahydro-1H-benzo[b][1.4]diazepin-3-yl]-ureido}-benzoic acid], the Ki was 2 nM.
The same measure, in the same setting: the same measure for `Cc1cccc(NC(=O)NC2C(=O)N(CC(=O)N3CCCC3)c3ccccc3N(c3ccccc3)C2=O)c1` (stereo not drawn) [Example 15]: 1.58 nM; for `CC1(C)CCCN(C(=O)CN2C(=O)C(NC(=O)Nc3ccc(F)cc3)C(=O)N(c3ccccc3F)c3ccccc32)C1` (stereo not drawn) [Example 20]: 2 nM.
In turn, `CN(C)c1cccc(NC(=O)NC2C(=O)N(CC(=O)N3CCCC3)c3ccccc3N(C3CCCCC3)C2=O)c1` (stereo not drawn) [Example 12] had a Ki of 1 nM.
Still for that read-out and setting: the same measure for `O=C(Nc1ccc(F)cc1)NC1C(=O)N(CC(=O)N2CCCC2)c2ccccc2N(C2CCCCC2)C1=O` (single isomer, unassigned) [Example 1 (isomer 1), 1-[1-Cyclohexyl-2,4-dioxo-5-(2-oxo-2-pyrrolidin-1-yl-ethyl)-2,3,4,5-tetrahydro-1H-benzo[b][1.4]diazepin-3-yl]-3-(4-fluoro-phenyl)urea]: 3.16 nM.

System in another data set: not listed separately
Briefly: untoward effects in the gastrin fistula rat. The format is in vivo. Particulars: 0.3 and 1 mg/kg iv. The source says: (§1) The compounds of the invention are essential non-toxic a theraapeutically active doses.
On to `O=C(Nc1ccc(F)cc1)NC1C(=O)N(CC(=O)N2CCCC2)c2ccccc2N(C2CCCCC2)C1=O` (single isomer, unassigned) [Example 1 (isomer 1), 1-[1-Cyclohexyl-2,4-dioxo-5-(2-oxo-2-pyrrolidin-1-yl-ethyl)-2,3,4,5-tetrahydro-1H-benzo[b][1.4]diazepin-3-yl]-3-(4-fluoro-phenyl)urea], for which the untoward effects entry is given as “no untoward effects were observed”.

In a further data set the test system is gastric acid secretion. The data set can be described thus: gastric acid secretion in the gastrin fistula rat. The format is in vivo. Particulars: 0.3 and 1 mg/kg iv.
Excerpt: as §1
On to `O=C(Nc1ccc(F)cc1)NC1C(=O)N(CC(=O)N2CCCC2)c2ccccc2N(C2CCCCC2)C1=O` (single isomer, unassigned) [Example 1 (isomer 1), 1-[1-Cyclohexyl-2,4-dioxo-5-(2-oxo-2-pyrrolidin-1-yl-ethyl)-2,3,4,5-tetrahydro-1H-benzo[b][1.4]diazepin-3-yl]-3-(4-fluoro-phenyl)urea], for which the gastric acid secretion result is “significally inhibited”.
